# Experimental data published in patent US9463214B2, “Antibiotic peptide derived from helicobacter pylori ribosomal protein L1 and uses thereof” (INDUSTRY-ACADEMIC COOPERATION FOUNDATION, CHOSUN UNIVERSITY, priority 2013, dated 2016).
# Where “and” joins values, the source holds several entries; their conditions need not be identical. Equal values may be shown once. Read-outs that look alike come from different tables or passages of the source. Ends that are not written are not given here.
# Columns and labels:
# [1] = test system: E-coli CCARM 1229; assay: microbe, parasite or virus in culture; type: cell-based, Escherichia coli; details: E-coli CCARM 1229, antibiotic-resistant
# From the text: (§1) To investigate the antibacterial activity of the HPA3P2 peptide prepared by the method of Example 1, the inventors first measured the minimal inhibitory concentration (MIC) that is the minimum concentration of the peptide for the strain to remain as not-decomposed.
# (§2) Particularly, to measure the antibacterial activity, the standard strains were obtained. For example, Gram-negative bacteria such as E. coli (KCTC 1682) and Pseudomonas aeruginosa (KCTC 1637), and Gram-positive bacteria such as Staphylococcus aureus (KCTC […]) and Bacillus subtilis (KCTC 1918) were provided from Gene Bank, Korea Research Institute of Bioscience & Biotechnology. In addition, a variety of the antibiotic-resistant strains such as Staphylococcus aureus (CCARM 3090, 3018, 3114, 3126) and E. coli (CCARM 1229, 1238) were distributed from the culture collection at Ewha Womans University. And Pseudomonas aeruginosa (1034, 3904, 4007, 4891) were obtained from the otitis media patients at Chonnam National University Hospital. Each strain was cultured in LB medium (1% bacto-trypton, 0.5% bacto-yeast extract, 1% NaCl; Sigma, USA) until the strain grew to mid-log phase. The strain was diluted with 1% bacto-peptone medium (Difco, USA) at the density of 5×10^5 cells/100 μl, which was then inoculated in micro-titrate plate (Nunc, USA). The peptide synthesized in Example 1 and the peptides in Table 1 were added to the plate (1/2 dilution from 96 well), followed by culture at 37° C. for 6 hours. OD620 was measured by using micro-titrate plate reader (Merck Elisa reader, Germany) to determine the MIC value of each strain.
# [2] = test system: E. coli CCARM 1238; assay: microbe, parasite or virus in culture; type: cell-based, Escherichia coli; details: E. coli CCARM 1238, antibiotic-resistant
# From the text: as §1, §2
# [3] = test system: S. aureus CCARM 3114; assay: microbe, parasite or virus in culture; type: cell-based, Staphylococcus aureus; details: S. aureus CCARM 3114, antibiotic-resistant
# From the text: as §1, §2
# [4] = test system: S. aureus CCARM 3126; assay: microbe, parasite or virus in culture; type: cell-based, Staphylococcus aureus; details: S. aureus CCARM 3126, antibiotic-resistant
# From the text: as §1, §2
# [5] = test system: S. aureus CCARM 3018; assay: microbe, parasite or virus in culture; type: cell-based, Staphylococcus aureus; details: S. aureus CCARM 3018, antibiotic-resistant
# From the text: as §1, §2
# [6] = test system: S. aureus CCARM 3090; assay: microbe, parasite or virus in culture; type: cell-based, Staphylococcus aureus; details: S. aureus CCARM 3090, antibiotic-resistant
# From the text: as §1, §2
# [7] = test system: P. aeruginosa 1034; assay: microbe, parasite or virus in culture; type: cell-based, Pseudomonas aeruginosa; details: P. aeruginosa 1034, antibiotic-resistant, from otitis media patients
# From the text: as §1, §2
# [8] = test system: P. aeruginosa 3904; assay: microbe, parasite or virus in culture; type: cell-based, Pseudomonas aeruginosa; details: P. aeruginosa 3904, antibiotic-resistant, from otitis media patients
# From the text: as §1, §2
# [9] = test system: P. aeruginosa 4891; assay: microbe, parasite or virus in culture; type: cell-based, Pseudomonas aeruginosa; details: P. aeruginosa 4891, antibiotic-resistant, from otitis media patients
# From the text: as §1, §2
# [10] = test system: P. aeruginosa 4007; assay: microbe, parasite or virus in culture; type: cell-based, Pseudomonas aeruginosa; details: P. aeruginosa 4007, antibiotic-resistant, from otitis media patients
# From the text: as §1, §2
# [11] = test system: Staphylococcus aureus (KCTC 1637); type: cell-based; details: 37° C., 6 hours, OD620
# From the text: as §1, §2
# [12] = test system: Pseudomonas aeruginosa (KCTC 1637); type: cell-based; details: 37° C., 6 hours, OD620
# From the text: as §1, §2
# [13] = test system: Bacillus subtilis (KCTC 1918); type: cell-based; details: 37° C., 6 hours, OD620
# From the text: as §1, §2
# [14] = test system: E. coli (KCTC 1682); type: cell-based; details: Escherichia coli KCTC 1682; 37° C., 6 hours, OD620
# From the text: as §1, §2
# [15] = test system: human erythrocytes; assay: Hemolytic activity; type: cell-based; details: for HC10 / HC50: human erythrocytes 8% in PBS, 37° C., 1 hour; for HC10: first value of HC10/HC50 cell; for HC50: second value of HC10/HC50 cell; for hemolytic activity: human erythrocytes, up to 800 μM peptide
# Experimental: To investigate whether or not the peptide HPA3P2 that has the folding structure as prepared in Example 1 had cytotoxicity, the hemolytic activity of the peptide having the folding structure was measured.
# Particularly, human erythrocytes were diluted in PBS (pH 7.0) at the concentration of 8%, to which the peptides represented by SEQ. ID. […] Then, centrifugation was performed at 1,000 g. Hemoglobin included in the supernatant was measured by measuring OD414. To compare and measure the level of cell destruction, 1% triton X-100 (Sigma, USA) was added to the human erythrocytes, and then OD of the supernatant was measured. The cell destruction capacity of the said 1% triton X-100 was considered as 100%, based on which the erythrocyte destruction capacity of each peptide including the peptide of the invention and the peptides listed in Table 1 was calculated by the below mathematical formula 1. % hemolysis=(ODA−ODB/ODC−ODB)×100 [Mathematical Formula 1] In the above mathematical formula 1, ODA is the OD of the peptide solution measured at 414 nm, and ODB is the OD of PBS measured at 414 nm, and ODC is the OD of 1% triton X-100 measured at 414 nm.
# [16] = test system: human keratinocyte HaCaT cell line; assay: Cytotoxicity in normal cell line (MTT); type: cell-based; details: HaCaT cells, 24 hours
# Experimental: (§3) To investigate whether or not the peptides prepared in Example 1 had cytotoxicity in normal cell line, the inventors investigated cytotoxicity in the human keratinocyte HaCaT cell line (Dr. N E. Fusenig, Heidelberg, Germany).
# (§4) Particularly, human keratinocyte HaCaT cells were cultured in DMEM (Dulbecco's Modified Eagle's Medium) supplemented with 10% FBS (Fetal Bovine Serum), which were then distributed in a 96-well plate at the density of 2×10^4 cells/well, followed by further culture for 24 hours. The peptides prepared in Example 1 were treated at different concentrations, followed by reaction in a 5% CO2 incubator for 24 hours. Upon completion of the culture, 20 μl of phosphate buffered saline (PBS) wherein MTT (Thiazolyl Blue Tetrazolium Bromide) was dissolved at the concentration of 5 mg/ml was added to each well, followed by culture for 4 hours. The supernatant was discarded. Then, the generated MTT crystal was dissolved in 200 μl of DMSO. OD560 was measured.
# [17] = Cytotoxicity in normal cell line (MTT); type: cell-based, human; details: human, HaCaT cells (human keratinocyte cell line), read-out: EC50 (50% cytotoxicity inhibition concentration)
# Experimental: as §3, §4
# [18] = test system: E. coli cells; assay: SYTOX-Green fluorescence intensity in E. coli; type: cell-based; details: E. coli 2×10^7 cells/ml, 1 μM SYTOX-Green, over time and peptide concentration
# Experimental: The SYTOX-Green fluorescence and luminous intensity of the peptide prepared in Example 1 were measured over the time.
# Particularly, E. coli cells were cultured in LB medium at 37° C. The cells were diluted in 10 mM sodium phosphate buffer at the density of 2×10^7 cells/ml. 1 μM of SYTOX-Green was treated to the cells, followed by reaction in a dark incubator for 15˜20 minutes. The comparative peptides (HPA3P(A) and Buporin-2(C)), and the experimental peptide HPA3P2(B) were treated at the minimum inhibition concentration. The increasing fluorescence intensity emitted from SYTOX-Green was measured (excitation wavelength: 484 nm, emission wavelength: 520 nm).
Compound,MIC Sa [11],MIC Pa [12],MIC Bs [13],MIC Ec [14],MIC [3],MIC [4],MIC [5],MIC [6],HC10 [15],HC50 [15],hemolytic activity [15],EC10 (10% cytotoxicity inhibition concentration) [16],MIC [1],MIC [2],MIC [7],MIC [8],MIC [9],MIC [10],other results
CC1(C)S[C@@H]2[C@H](NC(=O)[C@H](N)c3ccccc3)C(=O)N2[C@H]1C(=O)O [Ampicillin],–,–,–,–,–,–,–,–,–,–,–,–,–,–,–,–,–,–,"MIC ([1]; Escherichia coli, CCARM1229, read-out: MIC): > 800 µM; MIC ([2]; Escherichia coli, CCARM1238, read-out: MIC): > 800 µM"
CC[C@H]1OC(=O)[C@H](C)[C@@H](O[C@H]2C[C@@](C)(OC)[C@@H](O)[C@H](C)O2)[C@H](C)[C@@H](O[C@@H]2O[C@H](C)C[C@H](N(C)C)[C@H]2O)[C@](C)(O)C[C@@H](C)C(=O)[C@H](C)[C@@H](O)[C@]1(C)O [Erythromycin],–,–,–,–,–,–,–,–,–,–,–,–,–,–,–,–,–,–,"MIC ([3]; Staphylococcus aureus, CCARM3114): > 800 µM; MIC ([4]; Staphylococcus aureus, CCARM3126): > 800 µM; MIC ([5]; Staphylococcus aureus, CCARM3018): > 800 µM; MIC ([6]; Staphylococcus aureus, CCARM3090): > 800 µM"
CCN1CCN(C(=O)N[C@@H](C(=O)N[C@@H]2C(=O)N3[C@@H]2SC(C)(C)[C@@H]3C(=O)O)c2ccccc2)C(=O)C1=O [Piperacillin],–,–,–,–,–,–,–,–,–,–,–,–,–,–,–,–,–,–,MIC ([7]; Pseudomonas aeruginosa): > 400 µM; MIC ([8]; Pseudomonas aeruginosa): > 400 µM; MIC ([9]; Pseudomonas aeruginosa): > 400 µM; MIC ([10]; Pseudomonas aeruginosa): > 400 µM
"AKKVFKRLPKLFSKIWNWK-NH2 [HPA3P, AKKVFKRLPKLFSKIWNWK-NH2]",16 µM,8 µM,2 µM,1 µM,1 µM,1 µM,1 µM,1 µM,>800/>800 μM,>800/>800 μM,not observed,151.1 µM and 151.5 µM,0.5 to 1 µM,0.5 to 1 µM,1 µM,1 µM,1 µM,1 µM,EC50 at 24 h [17]: 381 µM
"AKKVFKRLPKLPSKIWNWK-NH2 [HPA3P2, AKKVFKRLPKLPSKIWNWK-NH2]",>64 µM,16 µM,>64 µM,16 µM,1 µM,1 µM,1 µM,1 µM,>800/>800 μM,>800/>800 μM,not observed,180.5 µM,0.5 to 1 µM,0.5 to 1 µM,1 µM,1 µM,1 µM,1 µM,–
buforin-2,–,–,–,–,–,–,–,–,–,–,–,–,–,–,–,–,–,–,change of SYTOX-Green fluorescence intensity [18]: the fluorescence intensity is changed
